Test results taken from the supplement of paper PMC10307832.

How the values were obtained:
Assay in all cases: relative viability (nuclei count vs DMSO), 5 days (fraction); higher = more cells survive
AZD8055 + Tozasertib = compound: COc1ccc(-c2ccc3c(N4CCOC[C@@H]4C)nc(N4CCOC[C@@H]4C)nc3n2)cc1CO [AZD8055] + Cc1cc(Nc2cc(N3CCN(C)CC3)nc(Sc3ccc(NC(=O)C4CC4)cc3)n2)n[nH]1 [Tozasertib] (partner 0.1 µM)
How it was run: (§1)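 A single step with final 0.05% Triton X-100, 1% formaldehyde and 1 ug/ml Hoechst fixed the cells and stained nuclei 5 days after treatment. Lung cancer cell lines in 1536-well plates had been treated by pin tool the day after seeding with one drug alone or a fixed anchor-drug dose plus five library-drug doses (not always all listed) in √10 steps, and nuclei were counted on 4× images. Relative viability is the ratio of nuclei in treated wells to nuclei in vehicle wells, taken as the median of duplicate plates.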

AZD8055 + Foretinib = compound: COc1ccc(-c2ccc3c(N4CCOC[C@@H]4C)nc(N4CCOC[C@@H]4C)nc3n2)cc1CO [AZD8055] + COc1cc2c(Oc3ccc(NC(=O)C4(C(=O)Nc5ccc(F)cc5)CC4)cc3F)ccnc2cc1OCCCN1CCOCC1 [Foretinib] (partner 0.25 µM)
How it was run: as §1

AZD8055 + AZD7762 = compound: COc1ccc(-c2ccc3c(N4CCOC[C@@H]4C)nc(N4CCOC[C@@H]4C)nc3n2)cc1CO [AZD8055] + NC(=O)Nc1cc(-c2cccc(F)c2)sc1C(=O)N[C@H]1CCCNC1 [AZD7762] (partner 0.2 µM)
How it was run: as §1

AZD8055 + Luminespib = compound: COc1ccc(-c2ccc3c(N4CCOC[C@@H]4C)nc(N4CCOC[C@@H]4C)nc3n2)cc1CO [AZD8055] + CCNC(=O)c1noc(-c2cc(C(C)C)c(O)cc2O)c1-c1ccc(CN2CCOCC2)cc1 [Luminespib] (partner 0.01 µM)
How it was run: as §1

Cell Line | relative viability (AZD8055 + Tozasertib; first compound 0.01 µM) | relative viability (AZD8055 + Tozasertib; first compound 0.03162 µM) | relative viability (AZD8055 + Tozasertib; first compound 0.1 µM) | relative viability (AZD8055 + Tozasertib; first compound 0.3162 µM) | relative viability (AZD8055 + Tozasertib; first compound 1 µM) | relative viability (AZD8055 + Foretinib; first compound 0.01 µM) | relative viability (AZD8055 + Foretinib; first compound 0.03162 µM) | relative viability (AZD8055 + Foretinib; first compound 0.1 µM) | relative viability (AZD8055 + Foretinib; first compound 0.3162 µM) | relative viability (AZD8055 + Foretinib; first compound 1 µM) | relative viability (AZD8055 + AZD7762; first compound 0.01 µM) | relative viability (AZD8055 + AZD7762; first compound 0.03162 µM) | relative viability (AZD8055 + AZD7762; first compound 0.1 µM) | relative viability (AZD8055 + AZD7762; first compound 0.3162 µM) | relative viability (AZD8055 + AZD7762; first compound 1 µM) | relative viability (AZD8055 + Luminespib; first compound 0.01 µM) | relative viability (AZD8055 + Luminespib; first compound 0.03162 µM) | relative viability (AZD8055 + Luminespib; first compound 0.1 µM) | relative viability (AZD8055 + Luminespib; first compound 0.3162 µM) | relative viability (AZD8055 + Luminespib; first compound 1 µM)
LC-2-ad | 0.491 | 0.564 | 0.366 | 0.339 | 0.377 | 1.05 | 0.855 | 0.652 | 0.58 | 0.469 | 0.909 | 0.873 | 0.816 | 0.791 | 0.645 | 1.25 | 0.969 | 1.03 | 0.537 | 0.548
LCLC-97TM1 | 0.207 | 0.157 | 0.128 | 0.118 | 0.137 | 0.963 | 0.74 | 0.671 | 0.417 | 0.529 | 0.23 | 0.176 | 0.173 | 0.145 | 0.11 | 0.706 | 0.531 | 0.365 | 0.216 | 0.241
LCLC-103H | 0.493 | 0.494 | 0.399 | 0.367 | 0.25 | 0.72 | 0.616 | 0.583 | 0.359 | 0.281 | 0.739 | 0.608 | 0.592 | 0.343 | 0.371 | 0.951 | 0.762 | 0.793 | 0.414 | 0.271
LK-2 | 0.147 | 0.133 | 0.182 | 0.15 | 0.154 | 0.938 | 0.938 | 0.648 | 0.292 | 0.142 | 0.285 | 0.204 | 0.205 | 0.104 | 0.135 | 0.154 | 0.186 | 0.16 | 0.173 | 0.144
LOU-NH91 | 0.735 | 0.716 | 0.693 | 0.672 | 0.506 | 0.982 | 0.891 | 0.761 | 0.562 | 0.561 | 0.684 | 0.702 | 0.621 | 0.557 | 0.555 | 0.349 | 0.348 | 0.325 | 0.282 | 0.317
LU99A | 0.289 | 0.268 | 0.2 | 0.198 | 0.21 | 0.859 | 0.627 | 0.681 | 0.264 | 0.302 | 0.366 | 0.242 | 0.185 | 0.152 | 0.133 | 0.234 | 0.189 | 0.185 | 0.191 | 0.188
LXF-289 | 0.234 | 0.295 | 0.212 | 0.201 | 0.105 | 1.05 | 1.02 | 0.962 | 0.763 | 0.72 | 1.28 | 1.2 | 1.19 | 0.978 | 0.744 | 0.715 | 0.599 | 0.623 | 0.309 | 0.32
NCI-H23 | 0.486 | 0.311 | 0.248 | 0.24 | 0.235 | 1.02 | 0.841 | 0.584 | 0.451 | 0.347 | 0.202 | 0.245 | 0.233 | 0.161 | 0.14 | 0.193 | 0.216 | 0.208 | 0.229 | 0.297
NCI-H322M | 0.458 | 0.45 | 0.408 | 0.347 | 0.326 | 0.933 | 0.802 | 0.781 | 0.573 | 0.6 | 0.51 | 0.454 | 0.434 | 0.426 | 0.432 | 0.797 | 0.597 | 0.357 | 0.348 | 0.289
NCI-H358 | 0.0893 | 0.121 | 0.102 | 0.0607 | 0.0813 | 1.03 | 0.887 | 0.585 | 0.264 | 0.181 | 0.701 | 0.557 | 0.523 | 0.308 | 0.203 | 0.33 | 0.336 | 0.392 | 0.123 | 0.0919
NCI-H441 | 0.591 | 0.767 | 0.499 | 0.309 | 0.295 | 0.925 | 0.94 | 0.68 | 0.349 | 0.37 | 1.24 | 1.14 | 0.837 | 0.562 | 0.382 | 0.347 | 0.291 | 0.283 | 0.22 | 0.221
NCI-H460 | 0.648 | 0.675 | 0.529 | 0.208 | 0.124 | 1.12 | 1.09 | 0.812 | 0.376 | 0.206 | 0.831 | 0.51 | 0.607 | 0.137 | 0.092 | 0.03 | 0.029 | 0.0182 | 0.0223 | 0.0329
NCI-H596 | 0.698 | 0.698 | 0.434 | 0.308 | 0.329 | 0.79 | 0.551 | 0.474 | 0.319 | 0.335 | 1.04 | 0.776 | 0.632 | 0.567 | 0.489 | 0.961 | 0.813 | 0.44 | 0.343 | 0.346
NCI-H647 | 0.319 | 0.27 | 0.28 | 0.143 | 0.088 | 1.18 | 0.941 | 0.61 | 0.405 | 0.229 | 0.397 | 0.338 | 0.391 | 0.157 | 0.1 | 0.15 | 0.126 | 0.125 | 0.0957 | 0.121
NCI-H650 | 0.817 | 0.711 | 0.601 | 0.381 | 0.333 | 1.12 | 0.995 | 0.773 | 0.541 | 0.368 | 0.84 | 0.875 | 1.02 | 0.667 | 0.323 | 0.998 | 0.768 | 0.691 | 0.436 | 0.295
NCI-H727 | 0.849 | 0.77 | 0.499 | 0.414 | 0.487 | 0.713 | 0.89 | 0.717 | 0.307 | 0.394 | 0.727 | 0.574 | 0.528 | 0.434 | 0.338 | 0.375 | 0.34 | 0.345 | 0.345 | 0.376
